Paper PMC6268235, “A New Butanolide Compound from the Aerial Part of Lindera akoensis with Anti-inflammatory Activity” (Molecules, 2012)

Tests used:
RAW264.7 cells = assay: Cell viability (MTT) in the presence of LPS; assay type: cell-based; conditions: RAW 264.7 cells, 100 ng/mL LPS, 24 h
Protocol: (§1) A murine macrophage cell line RAW264.7 (BCRC No. 60001) was purchased from the Bioresources Collection and Research Center (BCRC, Hsinchu, Taiwan) of the Food Industry Research and Development Institute (Hsinchu, Taiwan). Cells were cultured in plastic dishes containing Dulbecco’s Modified Eagle Medium (DMEM, Sigma, St. Louis, MO, USA) supplemented with 10% fetal bovine serum (FBS, Sigma) in a CO2 incubator (5% CO2 in air) at 37 °C and subcultured every 3 days at a dilution of 1:5 using 0.05% trypsin-0.02% EDTA in Ca^2+-, Mg^2+-free phosphate-buffered saline (DPBS).
Cells (2 × 10^5) were cultured in 96-well plate containing DMEM supplemented with 10% FBS for 1 day to become nearly confluent. Then cells were cultured with compounds 1–5 in the presence of 100 ng/mL LPS (lipopolysaccharide) for 24 h. After that, the cells were washed twice with DPBS and incubated with 100 μL of 0.5 mg/mL MTT for 2 h at 37 °C testing for cell viability. The medium was then discarded and 100 μL dimethyl sulfoxide (DMSO) was added. After 30-min incubation, absorbance at 570 nm was read using a microplate reader (Molecular Devices, Sunnyvale, CA, USA).

[1] = system: LPS-stimulated production of nitrite in RAW264.7 cell; assay: Inhibition of LPS-stimulated nitrite (NO) production, Griess reaction; assay type: cell-based, murine; conditions: for IC50: Mus musculus, RAW264.7, RAW 264.7 cells, LPS 100 ng/mL, 24 h, Griess reaction, read-out: IC50 (decrease nitrite of LPS-stimulated production)
Description: NO, produced from L-arginine by NO synthase, has various biological actions, e.g., as a defense and regulatory molecule for homeostatic equilibrium. However, in pathophysiologic conditions, such as inflammation, there is an increased production of NO by inducible NO synthase (iNOS). Macrophages have been expected to be an origin of inflammation, because they contain various chemical mediators that may be responsible for several inflammatory stages. The inhibitory activity toward NO production, induced by lipopolysaccharides (LPS), by murine macrophage-derived RAW264.7 cells was assayed.
as §1
NO production was indirectly assessed by measuring the nitrite levels in the cultured media and serum determined by a colorimetric method based on the Griess reaction. The cells were incubated with butanolides (0, 3.125, 6.25, 12.5, 25 and 50 μg/mL) in the presence of LPS (100 ng/mL) at 37 °C for 24 h. Then, cells were dispensed into 96-well plates, and 100 μL of each supernatant was mixed with the same volume of Griess reagent (1% sulfanilamide, 0.1% naphthylethylenediamine dihydrochloride and 5% phosphoric acid) and incubated at room temperature for 10 min, the absorbance was measured at 540 nm with a Micro-Reader (Molecular Devices). Serum samples were diluted four times with distilled water and deproteinized by adding 1/20 volume of zinc sulfate (300 g/L) to a final concentration of 15 g/L. After centrifugation at 10,000 × g for 5 min at room temperature, 100 μL supernatant was applied to a microtiter plate well, followed by 100 μL of Griess reagent. After 10 min of color development at room temperature, the absorbance was measured at 540 nm with a Micro-Reader. By using sodium nitrite to generate a standard curve, the concentration of nitrite was measured form absorbance at 540 nm.
IC50 values were estimated using a non-linear regression algorithm (Sigma Plot 8.0; SPSS Inc. Chicago, IL, USA). Statistical evaluation was carried out by one-way analysis of variance (ANOVA followed by Scheffe’s multiple range tests).

SMILES	LD50 (cell viability) (RAW264.7 cells) [µM]	IC50 [1] [µM]	anti-inflammatory activity (in words) ([1]; RAW264.7 cells, LPS-stimulated nitrite production)
CCCCCCCCCCC=CC1C(=O)OC(C)C1O (stereo not drawn) [Compound 1, 3β-((E)-dodec-1-enyl)-4β-hydroxy-5β-methyldihydrofuran-2-one]	72.3	44.3	
C=CCCCCCCCCC/C=C1/C(=O)OC(C)[C@@H]1O (stereo partly drawn) [Compound 4, (3E,4α,5β)-3-(dodec-11-enylidene)-4-hydroxy-5-methylbutalactone]	67.1	1.4	
CCCCCCCCCCCC/C=C/C1=CC(C)OC1=O (centres unmarked) [Compound 2, Akolactone A]	>211.9	180	
C=CCCCCCCCCC/C=C1\C(=O)OC(C)[C@@H]1O (stereo partly drawn) [Compound 3, (3Z,4α,5β)-3-(dodec-11-enylidene)-4-hydroxy-5-methylbutalactone]	49.3	2.4	
C=C1OC(=O)/C(=C/CCCCCCCCCCC)[C@H]1O [Compound 5, dihydroisoobtusilactone]	>178.6	97.9	no significant active
